The values that follow come from US20060166989A1, “2-naphthamide derivatives” (Bayer Healthcare AG, priority 2002, published 2006).

Structures are written as SMILES. Bounds are passed on as bounds.

T1 sequence (P43119 whole entry): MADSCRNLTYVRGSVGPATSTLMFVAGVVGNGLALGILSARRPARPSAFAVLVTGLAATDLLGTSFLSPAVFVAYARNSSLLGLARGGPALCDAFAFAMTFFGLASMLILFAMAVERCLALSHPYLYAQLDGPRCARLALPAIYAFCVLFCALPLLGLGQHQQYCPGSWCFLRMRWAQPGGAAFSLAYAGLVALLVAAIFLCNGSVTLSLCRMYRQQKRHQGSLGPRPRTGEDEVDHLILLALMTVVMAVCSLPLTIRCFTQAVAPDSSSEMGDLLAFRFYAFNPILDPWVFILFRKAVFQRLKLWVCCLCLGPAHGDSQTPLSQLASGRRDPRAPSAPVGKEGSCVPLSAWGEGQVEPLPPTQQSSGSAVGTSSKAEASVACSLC

System in the first series: not given
Experiment: not given
Conditions: not given
For `Cc1nc(COc2ccc3cc(C(=O)NC(Cc4ccccc4)C(=O)O)ccc3c2)cs1` (stereo not drawn) [Example 1-62], the melting point was 208 °C.

As for `CS(=O)(=O)Nc1ccc(CC(NC(=O)c2ccc3cc(OCc4ccccc4)ccc3c2)C(=O)O)cc1` (stereo not drawn) [Example 1-68], the melting point was 236 to 237 °C.

For `O=C(N[C@@H](Cc1ccccc1)C(=O)O)c1ccc2cc(NCc3ccccc3)ccc2c1` [Example 4-1, N-[6-(benzylamino)-2-naphthoyl]phenylalanine], the melting point came to 172 °C.

`O=C(NC(Cc1ccccc1)C(=O)O)c1ccc2cc(OCc3cccc(Cl)c3)ccc2c1` (stereo not drawn) [Example 1-24] displayed a melting point of 187 °C.

Take `O=C(NC(Cc1ccccc1)C(=O)O)c1ccc2cc(OCCN3CCCCC3)ccc2c1` (stereo not drawn) [Example 1-82]: the melting point was determined as 215 °C.

Turning to `O=C(NC(Cc1ccccc1)C(=O)O)c1ccc2cc(OCc3ccccc3C(F)(F)F)ccc2c1` (stereo not drawn) [Example 1-26], the melting point is 167 °C.

For `O=C(NC(Cc1ccccc1)C(=O)O)c1ccc2cc(OCc3ccccn3)ccc2c1` (stereo not drawn) [Example 1-9], the melting point amounted to 214 °C.

As to `O=C(NC(Cc1cccc(F)c1)C(=O)O)c1ccc2cc(OCc3ccccc3)ccc2c1` (stereo not drawn) [Example 1-21], the melting point was in the range of 188 to 191 °C.

`O=C(NC(Cc1ccccc1)C(=O)O)c1ccc2cc(OCc3cccc(Br)c3)ccc2c1` (stereo not drawn) [Example 1-52] yielded a melting point of 194 °C.

As to `O=C(NC(Cc1ccccc1)C(=O)O)c1ccc2cc(OCc3ccc(Cl)cc3Cl)ccc2c1` (stereo not drawn) [Example 1-42], the melting point turned out to be 202 °C.

The compound `O=C(N[C@H](Cc1ccccc1)C(=O)O)c1ccc2cc(OCc3ccccc3)ccc2c1` [Example 2-1, N-[6-(benzyloxy)-2-naphthoyl]-D-phenylalanine] came in with a melting point of 179 °C.

With `O=C(NC(Cc1ccccc1)C(=O)O)c1ccc2cc(OCc3ccccc3Cl)ccc2c1` (stereo not drawn) [Example 1-23], the melting point is 215 °C.

For `O=C(NC(CCc1ccccc1)C(=O)O)c1ccc2cc(OCc3ccccc3)ccc2c1` (stereo not drawn) [Example 1-72], the melting point was 223 to 225 °C.

As to `O=C(NC(Cc1ccccc1)C(=O)O)c1ccc2cc(OCc3cccc(F)c3)ccc2c1` (stereo not drawn) [Example 1-6], the melting point lay in the range of 197 to 199 °C.

Compound `O=C(NC(Cc1ccccc1)C(=O)O)c1ccc2cc(OCCCc3ccccc3)ccc2c1` (stereo not drawn) [Example 1-64] had a melting point of 182 °C.

Regarding `O=C(NC(Cc1ccccc1)C(=O)O)c1ccc2cc(OCc3ccc(F)c(F)c3)ccc2c1` (stereo not drawn) [Example 1-10], the melting point stood at 185 °C.

On to `O=C(NC(Cc1c[nH]c2ncccc12)C(=O)O)c1ccc2cc(OCc3ccccc3)ccc2c1` (stereo not drawn) [Example 1-80], for which the melting point is 275 to 277 °C (dec.).

For the compound `CCOc1cccc(COc2ccc3cc(C(=O)NC(Cc4ccccc4)C(=O)O)ccc3c2)c1` (stereo not drawn) [Example 1-91], the melting point came out at 145 °C.

`O=C(NC(Cc1cccc2ccccc12)C(=O)O)c1ccc2cc(OCc3ccccc3)ccc2c1` (stereo not drawn) [Example 1-48] returned a melting point of 218 °C.

Compound `CCCCOc1cccc(COc2ccc3cc(C(=O)NC(Cc4ccccc4)C(=O)O)ccc3c2)c1` (stereo not drawn) [Example 1-90] showed a melting point of 172 °C.

`Cc1cccc(COc2ccc3cc(C(=O)NC(Cc4ccccc4)C(=O)O)ccc3c2)c1` (stereo not drawn) [Example 1-55]: the melting point lay in the range of 184 to 185 °C.

Another series addresses T1, IP receptor (Homo sapiens, UniProt P43119).
T1 construct: HEL cells were collected with centrifugation and washed with cAMP assay buffer; host or cells: HEL 92.1.7 human erythroleukemia cells
The experiment in a line: Iloprost-induced cAMP production assay in HEL cells (Assay 2). The settings on record: read-out: Activity grade assay 2. The class given is cell-based. The procedure: [Iloprost-Induced cAMP Production Assay in HEL Cells] (Assay 2)
HEL cells were collected with centrifugation and washed with cAMP assay buffer (CAB: Hank's balanced salt solution, 17 mM Hepes, 0.1% bovine serum albumin, 1 mM IBMX, 0.4% DMSO, and 1 mM L-ascorbic acid sodium salt (pH 7.4)). Cells were suspended at the density of 2.5×10^5 cells/ml in CAB, and twenty thousand cells in 80 μl aliquot of cell suspension were put in a well of 96 well plate (Falcon). Then, 10 μl of compound solution diluted with 1% DMSO in CAB or buffer alone was added. The plate was incubated at 37° C. for 30 min. Then, another 10 μl containing 100 nM iloprost in CAB or buffer alone was added and further incubated at 37° C. for 30 min. cAMP content in the well was measured by a cAMP ELISA kit (Applied Biosystems, USA).
Results of Iloprost-induced cAMP production assay (Assay2) are shown in Examples and tables of the Examples below. For practical reasons, the compounds are grouped in three classes of activity as follows: A(=or<)0.1μM<B(=or<)1μM<C
On to `Cc1nc(COc2ccc3cc(C(=O)NC(Cc4ccccc4)C(=O)O)ccc3c2)cs1` (stereo not drawn) [Example 1-62], for which the IC50 was in the range of 100 to 1000 nM.

Turning to `CS(=O)(=O)Nc1ccc(CC(NC(=O)c2ccc3cc(OCc4ccccc4)ccc3c2)C(=O)O)cc1` (stereo not drawn) [Example 1-68], the IC50 was above 1000 nM.

With `O=C(N[C@@H](Cc1ccccc1)C(=O)O)c1ccc2cc(NCc3ccccc3)ccc2c1` [Example 4-1, N-[6-(benzylamino)-2-naphthoyl]phenylalanine], the IC50 lay in the range of 100 to 1000 nM.

For `O=C(NC(Cc1ccccc1)C(=O)O)c1ccc2cc(OCc3cccc(Cl)c3)ccc2c1` (stereo not drawn) [Example 1-24], the IC50 is below 100 nM.

For `O=C(NC(Cc1ccccc1)C(=O)O)c1ccc2cc(OCCN3CCCCC3)ccc2c1` (stereo not drawn) [Example 1-82], the IC50 was above 1000 nM.

Turning to `O=C(NC(Cc1ccccc1)C(=O)O)c1ccc2cc(OCc3ccccc3C(F)(F)F)ccc2c1` (stereo not drawn) [Example 1-26], the IC50 is 100 to 1000 nM.

In the case of `O=C(NC(Cc1ccccc1)C(=O)O)c1ccc2cc(OCc3ccccn3)ccc2c1` (stereo not drawn) [Example 1-9], the IC50 was in the range of 100 to 1000 nM.

`O=C(NC(Cc1cccc(F)c1)C(=O)O)c1ccc2cc(OCc3ccccc3)ccc2c1` (stereo not drawn) [Example 1-21]: the IC50 was below 100 nM.

In the case of `O=C(NC(Cc1ccccc1)C(=O)O)c1ccc2cc(OCc3cccc(Br)c3)ccc2c1` (stereo not drawn) [Example 1-52], the IC50 was below 100 nM.

Take `O=C(NC(Cc1ccccc1)C(=O)O)c1ccc2cc(OCc3ccc(Cl)cc3Cl)ccc2c1` (stereo not drawn) [Example 1-42]: the IC50 was above 1000 nM.

For the compound `O=C(N[C@H](Cc1ccccc1)C(=O)O)c1ccc2cc(OCc3ccccc3)ccc2c1` [Example 2-1, N-[6-(benzyloxy)-2-naphthoyl]-D-phenylalanine], the IC50 is below 100 nM.

Consider `O=C(NC(Cc1ccccc1)C(=O)O)c1ccc2cc(OCc3ccccc3Cl)ccc2c1` (stereo not drawn) [Example 1-23], for which the IC50 was below 100 nM.

Take `O=C(NC(CCc1ccccc1)C(=O)O)c1ccc2cc(OCc3ccccc3)ccc2c1` (stereo not drawn) [Example 1-72]: the IC50 was above 1000 nM.

Consider `O=C(NC(Cc1ccccc1)C(=O)O)c1ccc2cc(OCc3cccc(F)c3)ccc2c1` (stereo not drawn) [Example 1-6], for which the IC50 is below 100 nM.

Turning to `O=C(NC(Cc1ccccc1)C(=O)O)c1ccc2cc(OCCCc3ccccc3)ccc2c1` (stereo not drawn) [Example 1-64], the IC50 lay in the range of 100 to 1000 nM.

As to `O=C(NC(Cc1ccccc1)C(=O)O)c1ccc2cc(OCc3ccc(F)c(F)c3)ccc2c1` (stereo not drawn) [Example 1-10], the IC50 was below 100 nM.

In the case of `O=C(NC(Cc1c[nH]c2ncccc12)C(=O)O)c1ccc2cc(OCc3ccccc3)ccc2c1` (stereo not drawn) [Example 1-80], the IC50 is below 100 nM.

On to `CCOc1cccc(COc2ccc3cc(C(=O)NC(Cc4ccccc4)C(=O)O)ccc3c2)c1` (stereo not drawn) [Example 1-91], for which the IC50 is below 100 nM.

As for `O=C(NC(Cc1cccc2ccccc12)C(=O)O)c1ccc2cc(OCc3ccccc3)ccc2c1` (stereo not drawn) [Example 1-48], the IC50 was below 100 nM.

Consider `CCCCOc1cccc(COc2ccc3cc(C(=O)NC(Cc4ccccc4)C(=O)O)ccc3c2)c1` (stereo not drawn) [Example 1-90], for which the IC50 fell in the range of 100 to 1000 nM.

Turning to `Cc1cccc(COc2ccc3cc(C(=O)NC(Cc4ccccc4)C(=O)O)ccc3c2)c1` (stereo not drawn) [Example 1-55], the IC50 is below 100 nM.
